# Non-standard residues stand in square brackets, D forms with d. Residues, ends and D or L forms follow the SMILES beside them. *: point of attachment. AFC = O=c1cc(C(F)(F)F)c2ccc(N*)cc2o1; pNA = O=[N+]([O-])c1ccc(N*)cc1; Cbz = O=C(OCc1ccccc1)*; Sar = CNCC(=O)O
# Experiments:
# [1] = test system: thrombin; test: More sensitive thrombin activity assay: hydrolysis of fluorogenic substrate Z-GPR-afc (fluorescence at 500 nm); format: biochemical, human; conditions: fluorescence at 500 nm (excitation at 400 nm)
# Procedure: (§1) Assays of human a-thrombin and human trypsin were performed at 25° C. in 0.05M TRIS buffer pH 7.4, 0.15M NaCl, 0.1% PEG. Trypsin assays also contained 1 mM CaCl2.
# (§2) In certain studies with potent inhibitors (Ki <10 nM) where the degree of inhibition of thrombin was high, a more sensitive activity assay was employed. […] Concentrations of stock solutions of Z-GPR-afc were determined from measurements of absorbance at 380 nm of the 7-amino-4-trifluoromethyl coumarin produced upon complete hydrolysis of an aliquot of the stock solution by thrombin.
# (§3) Activity assays were performed by diluting a stock solution of substrate at least tenfold to a final concentration 0.5 Km into a solution containing enzyme or enzyme equilibrated with inhibitor. Times required to achieve equilibration between enzyme and inhibitor were determined in control experiments. Initial velocities of product formation in the absence (Vo) or presence of inhibitor (Vi) were measured. Assuming competitive inhibition, and that unity is negligible compared Km /[S], […] (where [S], [I], and e respectively represent the total concentrations, of substrate, inhibitor and enzyme), the equilibrium constant (Ki) for dissociation of the inhibitor from the enzyme can be obtained from the dependence of Vo /Vi on [I] shown in equation 1.
# [2] = test system: human thrombin; test: In vitro assay for determining proteinase inhibition: human thrombin (sar-PR-pna hydrolysis at 405 nm; Z-GPR-afc for potent inhibitors); format: biochemical; conditions: 25° C., pH 7.4; chromogenic substrate
# Procedure: (§4) In vitro assay for determining proteinase inhibition
# as §1, §2, §3
# [3] = test system: human trypsin; test: In vitro assay for determining proteinase inhibition: human trypsin (sar-PR-pna hydrolysis at 405 nm); format: biochemical; conditions: 25° C., pH 7.4, 1 mM CaCl2; chromogenic substrate
# Procedure: as §4, §1, §3
Km [1],Structure (SMILES),Km [2],Km [3]
27 µM,"N=C(N)NCCC[C@H](NC(=O)[C@@H]1CCCN1C(=O)CNC(=O)OCc1ccccc1)C(=O)Nc1ccc2c(C(F)(F)F)cc(=O)oc2c1 [Z-GPR-afc, Cbz-Gly-Pro-Arg-7-amino-4-trifluoromethylcoumarin] (Cbz-Gly-Pro-Arg-{AFC})",–,–
–,"CNCC(=O)N1CCC[C@H]1C(=O)N[C@@H](CCCNC(=N)N)C(=O)Nc1ccc([N+](=O)[O-])cc1 [sar-PR-pna, sarcosine-Pro-Arg-p-nitroanilide] (H-[Sar]-Pro-Arg-pNA)",125 µM,59 µM
